SMILES strings stand for the structures. Marks after values point to notes of the source that are not given here.

This is an account of results in patent US11179348B2, “Combination comprising pterostilbene for the treatment of cancer” (FUNDACIÓN UNIVERSIDAD CATÓLICA DE VALENCIA SAN VICENTE …, priority 2015, dated 2021).

One data set has as its system human A375 melanoma. Particulars: 20 μM Pter, 24 h, in vitro; cited from earlier work.
A further data set deals with MDA-MB-231 cells. Briefly: GSH levels and glutathione- and oxidative stress-related enzyme activities in MDA-MB-231 cells growing in vivo. Further details: species or system human. Particulars: MDA-MB-231, in vivo Pter, day 35. Here is the method: To measure enzyme activity, isolated tumor cells were homogenized in 0.1 M phosphate buffer (pH 7.2) at 4° C. GCL and GSS activities were measured as described previously (Obrador, E. et al. Hepatology 35, 74-81 (2002)). GPX (selenium dependent) activity was measured as described by Flohé and Gunzler (Flohe, L. & Gunzler, W. A. Methods Enzymol 105, 114-121 (1984)) using H2O2 as a substrate. GSR activity was determined as described by Akerboom and Sies (Akerboom, T. P. et al, Bull Eur Physiopathol Respir 17 Suppl, 221-227 (1981)). GGT activity was measured as described previously (Obrador, E. et al. Hepatology 35, 74-81 (2002)). GST activity was measured using an assay kit from Sigma. TXNRD activity, defined by the concentration of sodium-lipoate (disulfide) reduced to dehydrolipoate (dithiol) per milligram protein, was measured as previously described (Javvadi, P. et al. Cancer Res 70, 1941-1950 (2010)). SOD activity was measured as described by Flohé and Otting (Flohe, L. & Otting, F. Methods Enzymol 105, 93-104 (1984).) using 2 mM cyanide in the assay medium to distinguish mangano-type enzyme (SOD2) from the cuprozinc type (SOD1). CAT activity was analyzed as described by Aebi (Aebi, H. Methods Enzymol 105, 121-126 (1984)). NOX activity was measured by chemiluminescence following the methodology of Wind et al. (Wind, S. et al. Comparative pharmacology of chemically distinct NADPH oxidase inhibitors. Br J Pharmacol 161, 885-898 (2010)). Protein concentration was determined with the Pierce BCA protein assay (Fisher Scientific, Waltham, Mass.).
GSH, GSSG, NADP^+ and NADPH Determination.
GSH and GSSG were determined, following procedures previously described (Obrador, E. et al. PLoS One 9, e96466 (2014)), by LC/MS using the same equipment described above for pterostilbene determination. Cell processing was performed according to published methodology, where rapid N-ethylmaleimide derivatization was used to prevent GSH auto-oxidation (Asensi, M. et al. Anal Biochem 217, 323-328 (1994)). NADP^+ and NADPH were quantitated using an assay kit from Sigma (St. Louis, Mo.).
Isolation of Tumor Cells from Mouse Xenografts Using Enzymatic Digestion and a double Ficoll gradient.
To maximize the amount of isolated cells, avoiding the use of RFP-transfected cells and subsequent laser microdissection, an alternative methodology was set up. To maximize cell yield and viability the following combination of enzymes was used: collagenase III (200 U/ml; Sigma-Aldrich), DNase I (200 U/ml; Sigma-Aldrich) and trypsin (5 mg/ml; Invitrogen), and a non-enzymatic dissociation buffer (NEDB, Invitrogen). Briefly, mice were killed, and tumors were removed (avoiding skin, muscle and fat) into cold culture media and processed immediately. The tumors were minced into 1-3 mm fragments, which were then incubated with the dissociation solution (see above) for 30 min at 37° C. The tumor fragments were mixed up and down every 10 min using a […] micropipette with a tip cut to a diameter adapted to tissue fragment size. After each incubation period, the fragments were filtered through a […] nylon mesh cell strainer (BD Biosciences, San Diego, Calif., USA). The released cells were centrifuged at 1200 r.p.m. for 2 min and stored in cold CO2-independent medium with 30% FCS at […]. Fresh dissociation solution was added to the remaining tissue fragments for 30 min. Dissociation was stopped when no additional cells were released. The fragments were pushed through a sieve and all cells from all incubation periods were pooled and counted.
The dissociated cells were layered onto a double Ficoll gradient (Histopaque; Sigma-Aldrich; densities 1.077 and 1.119) and spun at 700 g for 30 min at room temperature. Cells removed from both interfaces were pooled and washed two times in CO2-independent medium and stored at 4° C. Debris and red blood cell elimination was improved with the dual-density gradient. […]

The subject of the next data set is ASPC-1 cells. Briefly: Effect of Pter on ASPC-1 cell growth or viability in vitro. It is filed as cell-based, human. The note with it: 15 μM Pter×60 min every 24 h. Here is the method: (§1) FIG. 11. In vivo effect of Pter on human pancreatic cancer growth. […] For the doses of 20 and 40 mg Pter/kg only the point at the end of the treatment period is shown.
(§2) Human A2058, MeWo and MelJuso melanoma cells, and mouse AtT-20 pituitary corticotroph tumor cells were from the American Type Culture Collection (ATCC). Human HEMa-LP epidermal melanocytes were from Life Technologies (Grand Island, N.Y.). Human MDA-MB-231 (triple negative: ER−, PR−, HER2−) and MCF-7 (ER+, PR+, HER2−) breast adenocarcinoma, A549 lung adenocarcinoma (NSCLC), HepG2 hepatocellular carcinoma, LNCaP (AR+) and PC-3 (AR−) prostate adenocarcinoma, SK-OV-3 epithelial ovarian carcinoma, and HT-29 and Caco-2 colorectal carcinoma cells were from the American Type Culture Collection. Cells were grown in Dulbecco's modified Eagle's medium (DMEM) (Invitrogen, San Diego, Calif.), pH 7.4, supplemented with 10% heat-inactivated FCS (Biochrom KG, Berlin, Germany), 100 units/ml penicillin and 100 μg/ml streptomycin. Cells were plated, at a density of 20,000 cells/cm2, and cultured at 37° C. in a humidified atmosphere with 5% CO2. […] Cell numbers were determined using a Coulter Counter (Coulter Electronic Inc., Miami, Fla.). […] Cellular viability was assessed as previously reported (Mena, S. et al. Clin Cancer Res 13, 2658-2666 (2007)), by measuring trypan blue exclusion and leakage of lactate dehydrogenase activity.

The test system of the next data set is human breast cancer. The note with it: 20 μM Pter, 24 h, in vitro; cited from earlier work.
In another data set the test system is BxPC-3 cells. Kind of data set: Effect of Pter on BxPC-3 cell growth or viability in vitro. The note with it: 15 μM Pter×60 min every 24 h. It is filed as cell-based, human. Here is the method:
as §1, §2

The test system of data set [1] is MDA-MB-231 breast adenocarcinoma. Briefly: In vivo growth of MDA-MB-231 breast cancer xenografts. Further details: species or system human. The note with it: MDA-MB-231, day 35.

Turning to `COc1cc(/C=C/c2ccc(O)cc2)cc(OC)c1` [Pter, trans-3,5-dimethoxy-4′-hydroxystilbene], the “decrease in tumor cell viability” value in the data set with human A375 melanoma is recorded as “approx. 30%”. Moreover, in the data set with MDA-MB-231 cells, the CAT amounted to 0.6 ± 0.2 mU/10^6 cells, the GCL is 66 ± 18 mU/10^6 cells, the GSH turned out to be 11.5 ± 2.0 nmol/10^6 cells and the GSS stood at 7.7 ± 1.2 mU/10^6 cells. In addition, in the data set with MDA-MB-231 cells, the GSSG stood at 0.2 ± 0.05 nmol/10^6 cells, the SOD1 was 0.3 ± 0.08 U/10^6 cells and the SOD2 is 0.03 ± 0.01 U/10^6 cells. Besides, the “cell growth or viability in vitro” value in the data set with ASPC-1 cells is recorded as “did not affect”. In addition, in the data set with human breast cancer, the “decrease in tumor cell viability” value is ~25%. Besides, the “cell growth or viability in vitro” value in the data set with BxPC-3 cells is reported as “did not affect”. Also, the Tumor vol. in data set [1] is 266 ± 89* mm^3.
